Values of other authors in patent EP1574563B1, “Use of detergent tablets” (UNILEVER N.V., priority 2004, dated 2005).
Read-outs that look alike come from different tables or passages of the source.

[1] = other common materials, by contrast, at 20°C

SMILES	Water Solubility (g/100g) [1] [g/100g]	Water Solubility (g/100g) (highly water-soluble materials, grams of solid required to form a saturated solution in 100 grams of water at 20°C)
O=BO[O-].[Na+] [Sodium perborate anhydrous]	3.7	–
O=P(O)(O)OP(=O)(O)OP(=O)(O)O [Sodium tripolyphosphate anhydrous]	15	–
NC(N)=O [Urea]	–	>100
